pIC50: −log10 of the molar value. Values joined by “and” are separate entries in the source; they are usually repeats but may differ in a detail not shown here. Identical values can stand only once. Like-named read-outs stand apart in the source and are kept apart here.
How the values were obtained:
P. falciparum [1] = test: Growth inhibition against P. falciparum; type: cell-based
HepG2 cells = test: HepG2 cell inhibition (cytotoxicity) assay; type: cell-based; conditions: for pIC50: Homo sapiens
Procedure: For cytotoxicity assays, HepG2 cells (ATCC HB-8065) were grown in DMEM supplemented with 4 mM L-glutamine (Gibco #11966-025) with either 4.5 g/L D-glucose or 1.8 g/L galactose as carbon source. Cells were trypsinized, resuspended in the respective medium (DMEM/glutamine/glucose or DMEM/glutamine/galactose) to 4×10^5 cells/mL and 50 μL/well transferred to flat-bottom white opaque tissue culture plates (Falcon #353296) containing 50 μL/well of the respective medium with test compound. Compound concentrations were two-fold dilutions ranging from 50 μM to 0.049 μM as well as the drug-free DMSO-only control. All concentrations were tested in duplicate for each carbon source. After 24 h incubation at 5% CO2, 37° C., 10 μL/well of Celltiter-Glo reagent (Promega #G9241) was added and luminescence recorded after 20 min incubation in the dark.

[2] = Metabolic stability in mouse liver microsomes; type: in vitro ADME; conditions: pH 7.4
Procedure: (§1) In this protocol, the metabolic stability of compounds at 1 μM was determined in mouse liver microsomes (MLM) and mouse plasma. For microsomal stability each test compound was incubated in an aqueous reaction mixture consisting of 0.25 […], 1.2 mM NADPH, 3.3 mM MgCl2, and 100 mM potassium phosphate buffer (pH 7.4). For plasma stability each test compound was incubated in mouse plasma (VWR). After incubation at 37° C. a 50 μL aliquot of the reaction was transferred to 200 μL ice cold acetonitrile containing internal standard (Enalapril, 100 ng/mL). The quenched reaction mixtures were centrifuged at 3200 rpm for 5 min, and 100 μL of the supernatant were transferred to 96-well plate and analyzed by LC-MS/MS using an Applied Biosystems-Sciex API 4000. Analyte/internal standard peak area ratios were used to evaluate stability. […] An Amour C18 column (2.1×30 mm, 5 μm; Analytical Sales and Services, Pompton Plains, N.J.) was used for chromatographic separation. Mobile phases were 0.1% formic acid, 1 mM triethylamine in water and acetonitrile with a flow rate of 0.35 mL/min. The starting phase was 0% acetonitrile increased to 100% acetonitrile over 3 minutes. Peak areas were integrated using Analyst Software (AB Sciex, Foster City, Calif.).

[3] = In vivo exposure study in mice; design: species or system Swiss Webster mice
Procedure: We designed a compound exposure study to determine plasma concentration of 12a under similar conditions to the efficacy study.
Animal care and all procedures were conducted at Charles River Laboratories (Wilmington, Mass.) and performed in accordance with the National Institutes of Health Guide for the Care and Use of Laboratory Animals and approved by the institutional animal care and use committee. […] The suspension was administered to unfasted female Swiss Weber mice (n=3) at 20 mg/kg i.p. Plasma samples (10 μL) were removed at 0.25, 0.5, 1, 2, 4, 6 and 8 h and stored at −80° C. Plasma samples were added to ice cold acetonitrile containing the internal standard, glafenine, as appropriate to bring samples into the standard curve range (50-10,000 ng/ml), then centrifuged for 5 minutes at 3200 rpm and the supernatant transferred to a 96-well sample plate for analysis by liquid chromatography-tandem mass spectrometry. The MRM transitions for glafenine and 12a were m/z: 370.9>296.9 and 180.075>119.9, respectively. A Synergi 4 μm Hydro-RP column (250×4.6 mm, 80 Å) was used for chromatographic separation. Mobile phases were 0.1% formic acid in water and acetonitrile with a flow rate of 1.2 mL/min. The starting phase was 0% acetonitrile for 3 minutes, increased to 60% acetonitrile over 6 minutes. Peak areas were integrated using Analyst Software (AB Sciex, Foster City, Calif.).

[4] = test system: P. falciparum had1 mutant strain; type: cell-based; conditions: for sensitivity in had1+HAD1-GFP strain: mutant supplied with wild-type copy of HAD1; for resistance of had1 parasites compared with wild-type 3D7: shift of IC50 curve
in vitro = in vitro ADME; conditions: mouse plasma, compound 1 μM, 37° C.; read-out: Plasma stability (t1/2)
Procedure: as §1

P. falciparum DXR [5] = target: T1, P. falciparum DXR (Plasmodium falciparum, UniProt Q8IKG4); test: Inhibition of P. falciparum DXR enzyme; type: biochemical
T1 sequence (Q8IKG4 73-488): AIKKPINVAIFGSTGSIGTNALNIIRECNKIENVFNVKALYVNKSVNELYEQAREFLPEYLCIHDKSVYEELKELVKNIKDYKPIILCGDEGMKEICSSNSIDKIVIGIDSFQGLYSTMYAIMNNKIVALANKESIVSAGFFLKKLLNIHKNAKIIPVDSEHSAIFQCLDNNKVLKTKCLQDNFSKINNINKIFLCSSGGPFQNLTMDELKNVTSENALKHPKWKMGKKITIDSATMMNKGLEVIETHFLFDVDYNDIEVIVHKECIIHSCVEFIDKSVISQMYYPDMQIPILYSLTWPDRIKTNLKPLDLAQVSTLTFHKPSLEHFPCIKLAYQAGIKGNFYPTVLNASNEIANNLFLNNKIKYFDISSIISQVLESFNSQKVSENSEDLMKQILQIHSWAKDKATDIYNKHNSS

P. berghei ANKA = test: P. berghei-infected mouse model of malaria; type: in vivo; conditions: for luciferin signal intensity (parasitemia): read seven days after infection
Procedure: Groups of mice were infected with luciferase-based blood-stage P. berghei ANKA by intraperitoneal (ip) injection. […] Seven days after infection, intensity of the luciferin signal was measured, correlating to the parasitemia burden.

MEP pathway metabolites = test: MEP pathway metabolite assay (LC-MS/MS); type: cell-based, P. falciparum; conditions: 3D7, 65 nM (5× IC50), 10 h
From the text: Thus, a mass spectrometry-based method was used to quantify the MEP metabolites from untreated P. falciparum versus parasites treated with this compound (FIG. 4). These metabolites include the DXR substrate (1-deoxy-D-xylulose 5-phosphate, DOXP), the DXR product (2-C-methylerythritol 4-phosphate, MEP), and the downstream metabolites (4-diphosphocytidyl-2-C-methylerythritol (CDP-ME) and 2-C-methyl-D-erythritol 2,4-cyclopyrophosphate (MEcPP)).
Cultures were lysed with 5% saponin, the parasite pellets washed with 1× phosphate-buffered saline (PBS), and the pellets stored at −80° C. […]
For LC separation, a Luna-NH2 column (3 um, 150×2 mm, Phenomenex) was used flowing at 0.4 mL/min. […] Metabolites were detected using MRM transitions that were previously optimized using standards. […] For quantification, an external standard curve was prepared using a series of standard samples containing different concentrations of metabolites and fixed concentration of the internal standard. […]

Mtb = Mtb growth inhibition (MIC99) in 7H9 and GAST-Fe media; type: cell-based, M. tuberculosis; conditions: Mycobacterium tuberculosis
Procedure: Selected analogs were tested for the growth inhibition against P. falciparum and Mtb in both rich media (7H9) and minimal media (GAST-Fe) following reported procedures.

Mtb DXR = Mtb DXR (Mycobacterium tuberculosis, UniProt P9WNS1); test: Inhibition of Mtb DXR enzyme; type: biochemical, M. tuberculosis; conditions: percent remaining enzyme activity at 100 μM compound
Chain of Mtb DXR (P9WNS1 whole entry): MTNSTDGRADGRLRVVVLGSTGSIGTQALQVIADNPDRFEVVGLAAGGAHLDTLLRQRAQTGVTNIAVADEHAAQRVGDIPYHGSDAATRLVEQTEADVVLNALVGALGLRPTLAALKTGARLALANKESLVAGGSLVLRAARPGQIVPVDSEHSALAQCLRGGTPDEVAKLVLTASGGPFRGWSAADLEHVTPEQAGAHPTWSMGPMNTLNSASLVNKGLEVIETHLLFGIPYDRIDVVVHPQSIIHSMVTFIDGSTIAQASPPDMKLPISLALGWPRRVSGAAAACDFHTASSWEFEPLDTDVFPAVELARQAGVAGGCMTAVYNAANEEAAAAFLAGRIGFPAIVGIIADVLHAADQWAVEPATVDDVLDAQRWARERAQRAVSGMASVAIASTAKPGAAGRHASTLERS
Procedure: Phosphonic acid salts and prodrugs were evaluated as inhibitors of DXR from Mtb and P. falciparum and the results are shown in Table 6. Initially, the percent remaining enzyme activity was studied using a treatment of each compound at a single concentration of 100 μM. […] In general, the compounds display greater inhibition of DXR from P. falciparum compared with activity against the Mtb homolog.

P. falciparum DXR [6] = target: T1, P. falciparum DXR; conditions: background; read-out: P. falciparum DXR IC50; cited from earlier work
P. falciparum [7] = conditions: earlier work / reference drug; read-out: P. falciparum growth IC50; cited from earlier work
[8] = mouse liver microsomes, compound 1 μM, 37° C., read-out: Metabolic stability MLM (t1/2)
[9] = Plasmodium falciparum; Table 6, growth inhibition; read-out: P.f. IC50
[10] = minimal media (GAST-Fe), read-out: Mtb MIC99 Gast/Fe
[11] = rich media (7H9), read-out: Mtb MIC99 7H9
[12] = Table 6, N-acyl analogs, read-out: Pf Dxr IC50

## O=CN(O)C/C=C/P(=O)([O-])O.[Na+] [Compound 12a, Sodium hydrogen [(1E)-3-(N-hydroxyformamido)prop-1-en-1-yl]phosphonate]
P. falciparum [1]; Plasmodium falciparum, read-out: P. falciparum growth IC50
  pIC50: 7.72
P. falciparum [1]; Plasmodium falciparum, read-out: Pf IC50
  pIC50: 7.72
HepG2 cells; HepG2 IC50/P.falciparum IC50
  SI^Pf Selectivity Index for P. falciparum: 2632
HepG2 cells; HepG2, read-out: HepG2 IC50
  pIC50: < 4.30
[2]; [8]
  half-life at 1 μM: > 60 min
[3]; after 18a 20 mg/kg i.p.
  plasma concentration at 8 h relative to Pf IC50 of 18a in vitro: approximately 200 fold
[3]; female, Swiss Webster, mouse, in vivo, 20 mg/kg, read-out: plasma concentration of 12a at 8 h
  concentration at 8 h: 485 ng/mL and 2.8 µM
[4]
  sensitivity in had1+HAD1-GFP strain: restored
  resistance of had1 parasites compared with wild-type 3D7: 3.4 fold
In vitro
  half-life at 1 μM: > 120 min
P. falciparum DXR [5]; read-out: P. falciparum DXR IC50
  pIC50: 7.04

## CC(C)(C)C(=O)OCOP(=O)(/C=C/CN(O)C=O)OCOC(=O)C(C)(C)C [Compound 18a, [({[(2,2-dimethylpropanoyl)oxy]methoxy}[(1E)-3-(N-hydroxyformamido)prop-1-en-1-yl]phosphoryl)oxy]methyl 2,2-dimethylpropanoate]
P. falciparum [1]; Plasmodium falciparum; Table 4, growth inhibition; read-out: Pf IC50
  pIC50: 7.89
P. falciparum [1]; Plasmodium falciparum; read-out: P. falciparum growth IC50
  pIC50: 7.89
HepG2 cells; HepG2, Table 5, cytotoxicity, read-out: HepG2 IC50
  pIC50: < 4.30
[2]; mouse, microsomes
  half-life at 1 μM: < 5 min
[2]; [8]
  half-life: < 5 min
[3]; 20 mg/kg i.p., Swiss Webster mice
  conversion of prodrug to 12a in vivo: rapidly converted to 12a
P. berghei ANKA; 20 mg/kg i.p.
  drop in luciferin signal intensity compared to vehicle: 3 log
P. berghei ANKA; 20 mg/kg i.p. daily for five days
  luciferin signal intensity (parasitemia): 2.87×10^3
P. berghei ANKA; 50 mg/kg i.p. daily for five days
  luciferin signal intensity (parasitemia): 2.34×10^3
[4]
  sensitivity in had1+HAD1-GFP strain: restored
  resistance of had1 parasites compared with wild-type 3D7: 2.5 fold
MEP pathway metabolites
  DOXP levels, treated vs untreated parasites: did not show significant difference
MEP pathway metabolites; MEP, CDP-ME, MEcPP
  levels of metabolites downstream of DXR, treated vs untreated parasites: reduced levels
In vitro
  half-life at 1 μM: < 5 min

## O=C(c1ccccc1)N(O)C/C=C/P(=O)([O-])O.[Na+] [Compound 32a, Sodium hydrogen [(1E)-3-(N-hydroxy-1-phenylformamido)prop-1-en-1-yl]phosphonate]
P. falciparum [1]; [9]
  IC50: 0.103 µg/mL
HepG2 cells; HepG2, Table 6, cytotoxicity, read-out: HepG2 IC50
  pIC50: < 4.30
Mtb; [10]
  MIC99: 25 µg/mL
Mtb; [11]
  MIC99: > 50 µg/mL
[4]; in words
  resistance of had1 parasites compared with wild-type: more resistant
Mtb DXR
  Mtb Dxr (% Residue): (36.87) %
P. falciparum DXR [5]; [12]
  pIC50: 6.96 and 6.97

## O=C(CCc1ccccc1)N(O)C/C=C/P(=O)([O-])O.[Na+] [Compound 32c, Sodium hydrogen [(1E)-3-(N-hydroxy-3-phenylpropanamido)prop-1-en-1-yl]phosphonate]
P. falciparum [1]; [9]
  IC50: 3.3 µg/mL
Mtb; [10]
  MIC99: > 100 µg/mL
Mtb; [11]
  MIC99: > 100 µg/mL
Mtb DXR
  Mtb Dxr (% Residue): (62.3) %
P. falciparum DXR [5]; [12]
  pIC50: 5.87

## O=C(CCCc1ccccc1)N(O)C/C=C/P(=O)([O-])O.[Na+] [Compound 32d, Sodium hydrogen [(1E)-3-(N-hydroxy-4-phenylbutanamido)prop-1-en-1-yl]phosphonate]
P. falciparum [1]; [9]
  IC50: 1.6 µg/mL
Mtb; [10]
  MIC99: > 100 µg/mL
Mtb; [11]
  MIC99: > 100 µg/mL
Mtb DXR
  Mtb Dxr (% Residue): (29.2) %
P. falciparum DXR [5]; [12]
  pIC50: 6.05

## CC(=O)N(O)CCCP(=O)(O)O [FR900098]
P. falciparum DXR [6]
  pIC50: 7.62

## C[C@@H]1CC[C@H]2[C@@H](C)C(=O)O[C@@H]3O[C@@]4(C)CC[C@@H]1[C@]32OO4 [artemisinin]
P. falciparum [7]
  pIC50: 7.98

Source: US11098072B2, “Alkenyl and beta-substituted phosphonates as antimicrobial agents” (The George Washington University, priority 2017, dated 2021)
